What was measured:
recombinant HIV-1 RT [1] = details: read-out: IC50 (Anti-HIV RT enzyme inhibition activity); mean ± SD, n = 3; cited from earlier work
recombinant HIV-1 RT [2] = assay: colorimetric Reverse Transcriptase Assay; format: biochemical
HIV-1HXB2 = format: cell-based; details: antiviral EC50 relative to best inhibitor (NBD-14189)
TZM-bl cells = details: read-out: CC50 (cytotoxicity), XTT, three days; cited from earlier work

CC1(C)CC(NC(=O)C(=O)Nc2ccc(Cl)cc2)CC(C)(C)N1 [NBD-556]
IC50 (recombinant HIV-1 RT [1]): > 200 µM

NC[C@@H](NC(=O)c1ccc(-c2ccc(Cl)c(F)c2)[nH]1)c1ncc(CO)s1 [NBD-14075]
increase in the IC50 value (recombinant HIV-1 RT [2]; 075 vs. 189 and 270): ~ 10 fold

NC[C@H](NC(=O)c1ccc(-c2ccc(C(F)(F)F)cc2)[nH]1)c1nc(CO)cs1 [NBD-14189]
Fold-change from best inhibitor (EC50) (HIV-1HXB2): 1
Fold-change from best inhibitor (IC50) (recombinant HIV-1 RT [2]; RT IC50 relative to best inhibitor (NBD-14189)): 1

NC[C@@H](NC(=O)c1ccc(-c2ccc(C(F)(F)F)cn2)[nH]1)c1ncc(C(O)CO)s1 (some centres unmarked) [NBD-14306]
CC50 (TZM-bl cells): > 113 µM

Reference: PMC10655131 (Journal of medicinal chemistry, 2021)
